Results on 18 molecules are retold here after patent US9896441B2 (Lycera Corporation, priority 2014, dated 2018).

As a reminder, the EC50 is the concentration giving half of the maximal effect.

Bounds are passed on as bounds.

For one test, the target named is T1, RORγ-LBD (Homo sapiens, UniProt P51449).
T1 construct: made in house; host or cells: SF9 cells (baculovirus); used as diluted lysate
T1 sequence (P51449 269-508 limits assumed): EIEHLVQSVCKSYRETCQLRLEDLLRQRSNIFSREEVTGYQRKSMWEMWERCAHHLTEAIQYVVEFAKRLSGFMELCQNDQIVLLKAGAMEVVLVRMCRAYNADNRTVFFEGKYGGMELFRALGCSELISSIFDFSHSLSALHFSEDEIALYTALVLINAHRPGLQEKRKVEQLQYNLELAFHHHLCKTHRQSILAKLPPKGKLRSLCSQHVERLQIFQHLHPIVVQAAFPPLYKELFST
Nature of the test: RORγ-Ligand Binding Domain (LBD) TR-FRET Assay.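 As to TR-FRET Assay Max Response: 665/615 nm signal ratio set to 100 without ursolic acid or test compound.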 The class given is biochemical. The settings on record: for TR-FRET Assay Max Response: maximum response. Summed up: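 TR-FRET read-out using a biotin-tagged SRC1 coactivator LXXLL peptide (200 nM final), with the antagonist ursolic acid present at 2 μM final. Receptor is His-tagged LBD expressed in SF9 cells, ~3 nM final in pH 7.0 Tris/KCl/EDTA/DTT/BSA buffer; compounds in 1% DMSO final.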

In another test the target is T2, Gal4-RORγ-LBD (Homo sapiens, UniProt P51449).
T2 construct: expressed in transfected cells
T2 sequence (P51449 269-508 limits assumed): T1 sequence (P51449 269-508 limits assumed)
Nature of the test: Gal4-RORγ Luciferase Reporter Assay in HEK-293T Cells. The class given is cell-based. The settings on record: HEK-293 cells; for Gal4-RORγ Assay Max Response: maximum response. In outline: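 Max Response was taken as the upper plateau of a 4-parameter logistic fit of luciferase signal, normalized to 100 for wells without ursolic acid or compound. Transiently Gal4-RORγ-LBD/Gal4-luc transfected HEK-293 cells carrying […] ursolic acid were incubated with test compounds (0.2% DMSO) overnight at 37 °C and read with One-Glo.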

Where [1] appears, read: luciferase reporter, in presence of ursolic acid.
[2] abbreviates: luciferase reporter, with ursolic acid.

On to `C/C(=C\c1ccc2c(c1)N(S(=O)(=O)c1cccc(C(F)(F)F)c1)C[C@H](CCC(=O)N1C[C@@H](C)O[C@@H](C)C1)O2)c1c(F)cccc1Cl` [Example 127E, 3-((S)-6-((E)-2-(2-chloro-6-fluorophenyl)prop-1-en-1-yl)-4-((3-(trifluoromethyl)phenyl)sulfonyl)-3,4-dihydro-2H-benzo[b][1,4]oxazin-2-yl)-1-((2S,6R)-2,6-dimethylmorpholino)propan-1-one], for which, on RORγ-LBD (RORγ-LBD TR-FRET assay), the EC50 was under 500 nM and the “TR-FRET Assay Max Response” value is recorded as “*** (a value in the range of greater than 150 to 200)”. Moreover, at Gal4-RORγ-LBD (setting [1]), the half-maximal effective concentration (EC50) is under 500 nM and the “Gal4-RORγ Assay Max Response” value is “* (a value in the range of 30 to 90)”.

On to `COC(=O)CC[C@H]1CN(S(=O)(=O)c2ccc(F)c(OC(F)F)c2)c2cc(/C=C/c3c(F)cccc3Cl)ccc2O1` [Example 89CU, methyl (S,E)-3-(6-(2-chloro-6-fluorostyryl)-4-((3-(difluoromethoxy)-4-fluorophenyl)-sulfonyl)-3,4-dihydro-2H-benzo[b][1,4]oxazin-2-yl)propanoate], for which the EC50 was under 500 nM at RORγ-LBD (RORγ-LBD TR-FRET) and 500 to 5000 nM on Gal4-RORγ-LBD (setting [2]).

With `COC(=O)CO[C@@H]1Cc2ccc(/C=C(\C)c3c(F)cccc3Cl)cc2N(S(=O)(=O)c2cccc(C(F)(F)F)c2)C1` [Example 173D, methyl (R,E)-2-((7-(2-(2-chloro-6-fluorophenyl)prop-1-en-1-yl)-1-((3-(trifluoromethyl)-phenyl)sulfonyl)-1,2,3,4-tetrahydroquinolin-3-yl)oxy)acetate], on RORγ-LBD (RORγ-LBD TR-FRET assay), the EC50 is under 500 nM and the “TR-FRET Assay Max Response” value is “** (a value in the range of greater than 90 to 150)”. Moreover, at Gal4-RORγ-LBD (setting [1]), the concentration giving a half-maximal response (EC50) is under 500 nM and the “Gal4-RORγ Assay Max Response” value was “** (a value in the range of greater than 90 to 150)”.

Regarding `C/C(=C\c1cc2c(cc1Cl)O[C@@H](CCC(=O)O)CN2S(=O)(=O)c1cccc(C(F)(F)F)c1)c1c(F)cccc1Cl` [Example 46, (S,E)-3-(7-Chloro-6-(2-(2-chloro-6-fluorophenyl)prop-1-en-1-yl)-4-((3-(trifluoromethyl)phenyl)sulfonyl)-3,4-dihydro-2H-benzo[b][1,4]oxazin-2-yl)propanoic acid], the half-maximal effective concentration (EC50) at RORγ-LBD (RORγ-LBD TR-FRET) and on Gal4-RORγ-LBD (setting [2]) was under 500 nM throughout.

In the case of `COC(=O)CC[C@H]1CN(S(=O)(=O)c2cccc(C(F)(F)F)c2)c2cc(/C=C3\CCOc4ccccc43)ccc2O1` [Example 38A, methyl (S,E)-3-(6-(chroman-4-ylidenemethyl)-4-((3-(trifluoromethyl)phenyl)sulfonyl)-3,4-dihydro-2H-benzo[b][1,4]oxazin-2-yl)propanoate], the half-maximal effective concentration (EC50) at RORγ-LBD (RORγ-LBD TR-FRET) is under 500 nM; on Gal4-RORγ-LBD (setting [2]), 500 to 5000 nM.

With `C[C@@H]1C/C(=C\c2ccc3c(c2)N(S(=O)(=O)c2cc(C(F)(F)F)cnc2OCCO)C[C@H](CCC(=O)O)O3)C[C@H](C)C1` [Example 95AA, 3-((S)-6-((E)-((3R,5S)-3,5-dimethylcyclohexylidene)-methyl)-4-((2-(2-hydroxy-ethoxy)-5-(trifluoromethyl)-pyridin-3-yl)sulfonyl)-3,4-dihydro-2H-benzo[b][1,4]oxazin-2-yl)propanoic acid], the results for the EC50 at RORγ-LBD (RORγ-LBD TR-FRET) and at Gal4-RORγ-LBD (setting [2]) were under 500 nM and 500 to 5000 nM, respectively.

As for `COC(=O)c1ccc(C(=O)NC[C@H]2CN(S(=O)(=O)c3ccc(F)c(OC)c3)c3cc(/C=C(\C)c4c(F)cccc4Cl)ccc3O2)cc1` [Example 133, Methyl (S,E)-4-(((6-(2-(2-chloro-6-fluorophenyl)prop-1-en-1-yl)-4-((4-fluoro-3-methoxyphenyl)sulfonyl)-3,4-dihydro-2H-benzo[b][1,4]oxazin-2-yl)methyl)carbamoyl)benzoate], on RORγ-LBD (RORγ-LBD TR-FRET assay), the 50% effective concentration (EC50) is under 500 nM and the “TR-FRET Assay Max Response” value was “**** (a value greater than 200)”. Besides, at Gal4-RORγ-LBD (setting [1]), the EC50 was under 500 nM and the “Gal4-RORγ Assay Max Response” value was “* (a value in the range of 30 to 90)”.

Turning to `CCOc1nn(CC)cc1S(=O)(=O)N1CC(C(=O)O)Cc2ccc(OCc3c(F)cccc3Cl)cc21` (stereo not drawn), the EC50 was under 500 nM on RORγ-LBD (with 2 μM ursolic acid (RORγ antagonist), highest test concentration 10 μM) and over 10000 nM at Gal4-RORγ-LBD (ursolic acid present, luciferase readout).

On to `COC(=O)CC[C@H]1CN(S(=O)(=O)c2cc(C(F)(F)F)cnc2OCCO)c2cc(/C=C/c3c(F)cccc3Cl)ccc2O1` [Example 89EB, methyl (S,E)-3-(6-(2-chloro-6-fluorostyryl)-4-((2-(2-hydroxyethoxy)-5-(trifluoromethyl)-pyridin-3-yl)sulfonyl)-3,4-dihydro-2H-benzo[b][1,4]oxazin-2-yl)propanoate], for which the concentration for a half-maximal effect (EC50) at RORγ-LBD (RORγ-LBD TR-FRET) and on Gal4-RORγ-LBD (setting [2]) was under 500 nM in each case.

As for `O=C(O)CC[C@H]1CN(S(=O)(=O)c2cccc(C(F)F)c2)c2cc(/C=C/c3c(Cl)cccc3C(F)(F)F)ccc2O1` [Example 82, (S,E)-3-(6-(2-Chloro-6-(trifluoromethyl)styryl)-4-((3-(difluoromethyl)phenyl)sulfonyl)-3,4-dihydro-2H-benzo[b][1,4]oxazin-2-yl)propanoic acid], the EC50 at RORγ-LBD (RORγ-LBD TR-FRET) and at Gal4-RORγ-LBD (setting [2]) was under 500 nM each time.

As to `C[C@@H]1C/C(=C\c2ccc3c(c2)N(S(=O)(=O)c2cccc(C(F)(F)F)c2)C[C@H](CCC(=O)O)O3)C[C@H](C)C1` [Example 95Z, 3-((S)-6-((E)-((3R,5S)-3,5-dimethylcyclohexylidene)-methyl)-4-((3-(trifluoromethyl)-phenyl)sulfonyl)-3,4-dihydro-2H-benzo[b][1,4]oxazin-2-yl)propanoic acid], the EC50 at RORγ-LBD (RORγ-LBD TR-FRET) is under 500 nM; on Gal4-RORγ-LBD (setting [2]), 500 to 5000 nM.

As to `C/C(=C\c1ccc2c(c1)N(S(=O)(=O)c1cccc(C(F)(F)F)c1)[C@H](C)[C@H](O)C2)c1c(F)cccc1Cl` (racemic) [Example 171, (2R,3R)-7-((E)-2-(2-Chloro-6-fluorophenyl)prop-1-en-1-yl)-2-methyl-1-((3-(trifluoromethyl)phenyl)sulfonyl)-1,2,3,4-tetrahydroquinolin-3-ol], on RORγ-LBD (RORγ-LBD TR-FRET assay), the 50% effective concentration (EC50) is under 500 nM and the “TR-FRET Assay Max Response” value is listed as “*** (a value in the range of greater than 150 to 200)”. On Gal4-RORγ-LBD (setting [1]), the EC50 is 500 to 5000 nM and the “Gal4-RORγ Assay Max Response” value is recorded as “** (a value in the range of greater than 90 to 150)”.

On to `C/C(=C\c1ccc2c(c1)N(S(=O)(=O)c1cccc(C(F)(F)F)c1)C[C@H](CCN1CCCC1)O2)c1c(F)cccc1Cl` [Example 118, (S,E)-6-(2-(2-Chloro-6-fluorophenyl)prop-1-en-1-yl)-2-(2-(pyrrolidin-1-yl)ethyl)-4-((3-(trifluoromethyl)phenyl)sulfonyl)-3,4-dihydro-2H-benzo[b][1,4]oxazine], for which the 50% effective concentration (EC50) is under 500 nM on RORγ-LBD (RORγ-LBD TR-FRET assay) and 500 to 5000 nM at Gal4-RORγ-LBD (setting [1]).

Consider `COc1cc(S(=O)(=O)N2CCCc3ccc(OCc4c(C)cccc4Cl)cc32)ccc1F` [Example 25W, 7-((2-chloro-6-methylbenzyl)oxy)-1-((4-fluoro-3-methoxyphenyl)sulfonyl)-1,2,3,4-tetrahydroquinoline], for which the EC50 at RORγ-LBD (RORγ-LBD TR-FRET) and at Gal4-RORγ-LBD (setting [2]) was under 500 nM throughout.

Turning to `C/C(=C\c1ccc2c(c1)N(S(=O)(=O)c1cccc(C(F)(F)F)c1)C[C@H](CCN1CCC[C@H]1C(=O)O)O2)c1c(F)cccc1Cl` [Example 124, (2-((S)-6-((E)-2-(2-Chloro-6-fluorophenyl)prop-1-en-1-yl)-4-((3-(trifluoromethyl)phenyl)sulfonyl)-3,4-dihydro-2H-benzo[b][1,4]oxazin-2-yl)ethyl)-L-proline], at RORγ-LBD (RORγ-LBD TR-FRET assay), the 50% effective concentration (EC50) is under 500 nM and the “TR-FRET Assay Max Response” value was “*** (a value in the range of greater than 150 to 200)”. At Gal4-RORγ-LBD (setting [1]), the half-maximal effective concentration (EC50) is 500 to 5000 nM and the “Gal4-RORγ Assay Max Response” value is on record as “** (a value in the range of greater than 90 to 150)”.

Turning to `CCOc1ncc(Cl)cc1S(=O)(=O)N1C[C@H](CCC(=O)O)Oc2ccc(/C=C(\C)c3c(F)cccc3Cl)cc21` [Example 68, (S,E)-3-(4-((5-Chloro-2-ethoxypyridin-3-yl)sulfonyl)-6-(2-(2-chloro-6-fluorophenyl)prop-1-en-1-yl)-3,4-dihydro-2H-benzo[b][1,4]oxazin-2-yl)propanoic acid], the half-maximal effective concentration (EC50) is under 500 nM at RORγ-LBD (RORγ-LBD TR-FRET) and 500 to 5000 nM on Gal4-RORγ-LBD (setting [2]).

`CCOc1nn(CC)cc1S(=O)(=O)N1C[C@H](CCC(=O)OC)Oc2ccc(/C=C/c3cccs3)cc21` [Example 89P, (S,E)-methyl 3-(4-((3-ethoxy-1-ethyl-1H-pyrazol-4-yl)sulfonyl)-6-(2-(thiophen-2-yl)vinyl)-3,4-dihydro-2H-benzo[b][1,4]oxazin-2-yl)propanoate]: the EC50 at RORγ-LBD (RORγ-LBD TR-FRET) was 500 to 5000 nM; at Gal4-RORγ-LBD (setting [2]) it was over 10000 nM.

Turning to `C/C(=C\c1ccc2c(c1)N(S(=O)(=O)c1cccc(C(F)(F)F)c1)C[C@H](CCCN1CCOCC1)O2)c1c(F)cccc1Cl` [Example 119D, (S,E)-6-(2-(2-chloro-6-fluorophenyl)prop-1-en-1-yl)-2-(3-morpholinopropyl)-4-((3-(trifluoromethyl)-phenyl)sulfonyl)-3,4-dihydro-2H-benzo[b][1,4]oxazine], at RORγ-LBD (RORγ-LBD TR-FRET assay), the 50% effective concentration (EC50) was under 500 nM and the “TR-FRET Assay Max Response” value is “*** (a value in the range of greater than 150 to 200)”. On Gal4-RORγ-LBD (setting [1]), the EC50 is under 500 nM and the “Gal4-RORγ Assay Max Response” value is given as “** (a value in the range of greater than 90 to 150)”.
